As usually defined, the IC50 is the point on the concentration scale where inhibition reaches its midpoint.

For this experiment, the target named is T1, Active human recombinant ROCK II (N-terminal His6-tagged recombinant human ROCK-II residues 11-552) (Homo sapiens, UniProt O75116).
T1 construct: recombinant human ROCK-II residues 11-552; His6 (N); purchased Upstate Ltd., Dundee, UK
Nature of the experiment: Determination of Rho Kinase Inhibition (Caliper peptide phosphorylation assay). In kind it is biochemical. To be noted: Fluorescein-AKRRRLSSLRA-COOH substrate and ATP, 60 min incubation at 32° C., respective form (salt or free base) obtained as in the examples. As to the method: Determination of Rho Kinase Inhibition
To measure Rho-kinase inhibition, IC50 values were determined according to the following protocol:
Active human recombinant ROCK II (N-terminal His6-tagged recombinant human ROCK-II residues 11-552) was purchased from Upstate Ltd., Dundee, UK. The peptide substrate, Fluorescein-AKRRRLSSLRA-COOH, was obtained from JPT Peptide Technologies, Berlin, Germany. Adenosine-5′-triphosphate (ATP), bovine serum albumine (BSA), dimethylsulphoxide (DMSO), 4-(2-hydroxyethyl)piperazine-1-ethanesulfonic acid (Hepes), Brij-35 and dithiothreitol (DTT) were purchased from Sigma-Aldrich, Munich, Germany. Tris(hydroxymethyl)-aminomethane (Tris), magnesium chloride, NaOH, 1 M HCl and EDTA were obtained from Merck Biosciences, Darmstadt, Germany. “Complete” protease inhibitor was from Roche Diagnostics, Mannheim, Germany.
Test compounds were diluted to the appropriate concentrations in buffer 1 (25 mM Tris-HCl, pH 7.4, 5 mM MgCl2, 2 mM DTT, 0.02% (w/v) BSA and 3% DMSO). The ROCK II enzyme was diluted to a concentration of 100 ng/ml in buffer 2 (25 mM Tris-HCl, pH 7.4, 5 mM MgCl2, 2 mM DTT and 0.02% (w/v) BSA). The peptide substrate and ATP were diluted to concentrations of 3 μM and 120 μM, respectively, in the buffer 2. 2 μl of the compound solution were mixed with 2 μl of the diluted enzyme in a 384-well small volume microtiter plate (Greiner, Bio-One, Frickenhausen, Germany), and the kinase reaction was initiated by addition of 2 μl of the solution containing peptide substrate and ATP. After 60 min incubation at 32° C., the reaction was stopped by addition of 20 μl of a solution containing 100 mM Hepes-NaOH, pH 7.4, 0.015% (v/v) Brij-35, 45 mM EDTA and 0.227% chip coating reagent 1 (Caliper Lifescience Inc, Hopkinton, Mass.). Phosphorylation of the substrate peptide was then detected on a Caliper 3000 instrument essentially as described by Pommereau et al. (J. Biomol. Screening 2004, 9(5), 409-416). Separation conditions were as follows: Pressure—1.3 psi, upstream voltage—1562 V, downstream voltage—500 V, sample sip time 200 ms. Positive controls (buffer 1 instead of compound) and negative controls (buffer 1 instead of compound and buffer 2 instead of ROCK II) were run in parallel on each plate.
The following products/compounds were tested in said assay by using the respective form (salt or free base) obtained as in the examples described above and the following activities were measured.

T1 sequence (O75116 11-552): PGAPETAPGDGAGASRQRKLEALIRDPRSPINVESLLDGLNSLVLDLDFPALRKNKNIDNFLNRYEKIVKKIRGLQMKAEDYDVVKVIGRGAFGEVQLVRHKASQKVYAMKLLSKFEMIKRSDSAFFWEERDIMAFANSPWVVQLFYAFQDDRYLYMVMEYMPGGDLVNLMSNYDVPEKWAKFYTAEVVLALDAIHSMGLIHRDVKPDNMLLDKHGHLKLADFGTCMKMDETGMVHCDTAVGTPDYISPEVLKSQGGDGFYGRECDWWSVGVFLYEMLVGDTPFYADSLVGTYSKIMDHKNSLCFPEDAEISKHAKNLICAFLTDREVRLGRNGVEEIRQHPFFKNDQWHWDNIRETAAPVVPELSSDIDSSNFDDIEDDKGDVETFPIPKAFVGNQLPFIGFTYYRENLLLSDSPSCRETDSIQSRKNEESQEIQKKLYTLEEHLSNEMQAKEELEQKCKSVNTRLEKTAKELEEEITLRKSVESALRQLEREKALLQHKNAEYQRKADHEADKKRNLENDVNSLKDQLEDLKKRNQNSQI

Consider `O=c1[nH]ccc2cc(OC3CCC(N4CCOCC4)CC3)c(Cl)cc12` (mixture of isomers) [Compound 18, 7-Chloro-6-(4-morpholin-4-yl-cyclohexyloxy)-2H-isoquinolin-1-one], for which the IC50 is at most 1000 nM.

Take `O=c1[nH]ccc2cc(OC3CCC(N4CCCCC4)CC3)c(Cl)cc12` (mixture of isomers) [Compound 16, 7-Chloro-6-(4-piperidin-1-yl-cyclohexyloxy)-2H-isoquinolin-1-one]: the IC50 was at most 1000 nM.

On to `CCC[C@]1(N)CCC[C@@H](Oc2cc3cc[nH]c(=O)c3cc2Cl)CCC1` (single isomer, unassigned) [Compound 66, 6-(cis-5-Amino-5-propyl-cyclooctyloxy)-7-chloro-2H-isoquinolin-1-one], for which the IC50 is at most 1000 nM.

On to `N[C@H]1CCC[C@@H](Oc2cc3cc[nH]c(=O)c3cc2Cl)CC1` (relative stereo) [Compound 48, 7-Chloro-6-(cis-4-Amino-cycloheptyloxy)-2H-isoquinolin-1-one], for which the IC50 is at most 1000 nM.

Regarding `O=c1[nH]ccc2cc(O[C@H]3CC[C@@H](N4CCCC4)CC3)c(Cl)cc12` [Compound 20, 7-Chloro-6-(4-pyrrolidin-1-yl-cyclohexyloxy)-2H-isoquinolin-1-one], the IC50 is at most 1000 nM.

Regarding `O=C(O)CN[C@H]1CC[C@@H](Oc2cc3cc[nH]c(=O)c3cc2Cl)CC1` [Compound 24, [4-(7-Chloro-1-oxo-1,2-dihydro-isoquinolin-6-yloxy)-cis-cyclohexylamino]-acetic acid], the IC50 is at most 1000 nM.

Consider `Cc1cc2c(=O)[nH]ccc2cc1O[C@H]1CC[C@H](NC(=O)CC2CCNCC2)CC1` [Compound 29, N-[4-(7-Methyl-1-oxo-1,2-dihydro-isoquinolin-6-yloxy)-trans-cyclohexyl]-2-piperidin-4-yl-acetamide], for which the IC50 was 1000 to 10000 nM.

With `O=c1[nH]ccc2cc(O[C@H]3CC[C@H](N4CCCC4)CC3)c(Cl)cc12` [Compound 19, 7-Chloro-6-(4-pyrrolidin-1-yl-cyclohexyloxy)-2H-isoquinolin-1-one], the IC50 was at most 1000 nM.

With `Cc1cc2c(=O)[nH]ccc2cc1O[C@@H]1CCC[C@H](N)CC1` (relative stereo) [Compound 47, 6-(cis-4-Amino-cycloheptyloxy)-7-methyl-2H-isoquinolin-1-one], the IC50 is at most 1000 nM.

With `CN1CCN([C@H]2CC[C@H](Oc3cc4cc[nH]c(=O)c4cc3Cl)CC2)CC1` [Compound 21, 7-Chloro-6-[4-(4-methyl-piperazin-1-yl)-cyclohexyloxy]-2H-isoquinolin-1-one], the IC50 was at most 1000 nM.

With `Cc1cc2c(=O)[nH]ccc2cc1O[C@H]1CC[C@H](NC(=O)CCC2CCNCC2)CC1` [Compound 28, N-[4-(7-Methyl-1-oxo-1,2-dihydro-isoquinolin-6-yloxy)-trans-cyclohexyl]-3-piperidin-4-yl-propionamide], the IC50 is 1000 to 10000 nM.

In the case of `O=c1[nH]ccc2cc(O[C@H]3CC[C@H](N4CCOCC4)CC3)c(Cl)cc12` [Compound 17, 7-Chloro-6-(4-morpholin-4-yl-cyclohexyloxy)-2H-isoquinolin-1-one], the half-maximal inhibitory concentration (IC50) was at most 1000 nM.

As to `O=C(CC1CCNCC1)N[C@H]1CC[C@@H](Oc2cc3cc[nH]c(=O)c3cc2Cl)CC1` [Compound 31, N-[4-(7-Chloro-1-oxo-1,2-dihydro-isoquinolin-6-yloxy)-cis-cyclohexyl]-2-piperidin-4-yl-acetamide], the 50% inhibitory concentration (IC50) was at most 1000 nM.

With `N[C@H]1C[C@H](COc2cc3cc[nH]c(=O)c3cc2Cl)C1` [Compound 56, trans-6-(3-Amino-cyclobutylmethoxy)-7-chloro-2H-isoquinolin-1-one], the IC50 was at most 1000 nM.

In the case of `NC1CC(Oc2cc3cc[nH]c(=O)c3cc2Cl)C1` (mixture of isomers) [Compound 54, 6-(3-Amino-cyclobutoxy)-7-chloro-2H-isoquinolin-1-one], the IC50 is at most 1000 nM.

In the case of `NC(=O)C1CCN(C2CCC(Oc3cc4cc[nH]c(=O)c4cc3Cl)CC2)CC1` (mixture of isomers) [Compound 15, 1-[4-(7-Chloro-1-oxo-1,2-dihydro-isoquinolin-6-yloxy)-cyclohexyl]-piperidine-4-carboxylic acid amide], the IC50 was at most 1000 nM.

Consider `O=C(CCC1CCNCC1)N[C@H]1CC[C@@H](Oc2cc3cc[nH]c(=O)c3cc2Cl)CC1` [Compound 30, N-[4-(7-Chloro-1-oxo-1,2-dihydro-isoquinolin-6-yloxy)-cis-cyclohexyl]-3-piperidin-4-yl-propionamide], for which the half-inhibitory concentration (IC50) was at most 1000 nM.

For the compound `N[C@@H]1CC[C@H](Oc2ccc3c(=O)[nH]ccc3c2)C1` [Compound 45, 6-((1S,3R)-3-Amino-cyclopentyloxy)-2H-isoquinolin-1-one], the concentration for half-maximal inhibition (IC50) was at most 1000 nM.

With `N[C@H]1CC[C@H](Oc2cc3cc[nH]c(=O)c3cc2Cl)C1` [Compound 44, 6-((1S,3S)-3-Amino-cyclopentyloxy)-7-chloro-2H-isoquinolin-1-one], the IC50 was at most 1000 nM.

As for `CN1CCN([C@H]2CC[C@@H](Oc3cc4cc[nH]c(=O)c4cc3Cl)CC2)CC1` [Compound 22, 7-Chloro-6-[4-(4-methyl-piperazin-1-yl)-cyclohexyloxy]-2H-isoquinolin-1-one], the concentration for half-maximal inhibition (IC50) is at most 1000 nM.

With `CCC[C@]1(N)CCC[C@H](Oc2cc3cc[nH]c(=O)c3cc2Cl)CCC1` (single isomer, unassigned) [Compound 67, 6-(trans-5-amino-5-propyl-cyclooctyloxy)-7-chloro-2H-isoquinolin-1-one], the IC50 was at most 1000 nM.

The record behind these values is patent US8742116B2, “Cycloalkylamine substituted isoquinolone derivatives” (Sanofi, priority 2006, dated 2014).
